# Measured values from ChEMBL document CHEMBL1130949, “Construction of a family of biphenyl combinatorial libraries: structure-activity studies utilizing libraries of mixtures” (Bioorg Med Chem Lett, 1998).
# Assay: Binding affinity against vitronectin receptor was determined
smiles,measurement,value
CC(=O)N[C@@H](CC(=O)O)C(=O)Nc1ccc(-c2ccccc2C(N)=O)cc1,IC50,96 µM
CC(=O)N[C@@H](CC(=O)O)C(=O)Nc1ccc(-c2ccccc2C(=O)N[C@@H](CCCN=C(N)N)C(=O)O)cc1,IC50,34 µM
CC(=O)N[C@@H](CC(=O)O)C(=O)Nc1ccc(-c2ccccc2C(=O)O)cc1,IC50,52 µM
CC(=O)N[C@@H](CC(=O)O)C(=O)Nc1cccc(-c2ccccc2C(=O)O)c1,IC50,46 µM
CC(=O)N[C@@H](CC(=O)O)C(=O)Nc1ccc(-c2ccc(C(=O)O)cc2)cc1,IC50,96 µM
CC(=O)N[C@@H](CC(=O)O)C(=O)Nc1ccc(-c2cccc(C(=O)O)c2)cc1,IC50,31 µM
COCC(=O)N[C@@H](CC(=O)O)C(=O)Nc1ccc(-c2ccccc2C(=O)O)cc1,IC50,> 500 µM
CC(=O)N[C@H](CC(=O)O)C(=O)Nc1ccc(-c2ccccc2C(=O)O)cc1,IC50,> 500 µM
CC(C)C(=O)N[C@@H](CC(=O)O)C(=O)Nc1ccc(-c2ccccc2C(=O)O)cc1,IC50,> 500 µM
